Test results reported in the supplement of paper PMC10307832.

Legend:
Test in all cases: relative viability (nuclei count vs DMSO), 5 days (fraction); higher = more cells survive
[1] = compound: CC1=C(C(=NN1)C)CC2=C(C3=C(S2)N(C(=O)N(C3=O)C)CC(C)C)C(=O)N4C[C@@H](CO4)O + Nc1ncn([C@H]2C[C@H](O)[C@@H](CO)O2)c(=O)n1 [Decitabine] (partner 2 µM)
In short: (§1)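 Relative viability was taken as the ratio of nuclei in treated wells to nuclei in vehicle wells. Lung cancer cell lines in 1536-well plates received compounds by pin tool one day after seeding, either one drug alone or a fixed anchor-drug dose plus five library-drug doses (not always all listed) in √10 steps. Nuclei were counted on 4× images after 5 days of treatment, and values are medians of duplicate plates.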

IDH-C35 + Decitabine = compound: Cc1ccccc1C(C(=O)NC1CCCCC1)N(C(=O)Cn1ccnc1C)c1cccc(F)c1 [IDH-C35] + Nc1ncn([C@H]2C[C@H](O)[C@@H](CO)O2)c(=O)n1 [Decitabine] (partner 2 µM)
In short: as §1

IDH-C35 + Navitoclax = compound: Cc1ccccc1C(C(=O)NC1CCCCC1)N(C(=O)Cn1ccnc1C)c1cccc(F)c1 [IDH-C35] + CC1(C)CCC(c2ccc(Cl)cc2)=C(CN2CCN(c3ccc(C(=O)NS(=O)(=O)c4ccc(N[C@H](CCN5CCOCC5)CSc5ccccc5)c(S(=O)(=O)C(F)(F)F)c4)cc3)CC2)C1 [Navitoclax] (partner 0.5 µM)
In short: as §1

[2] = compound: CC1=C(C(=NN1)C)CC2=C(C3=C(S2)N(C(=O)N(C3=O)C)CC(C)C)C(=O)N4C[C@@H](CO4)O + COc1cc2c(Oc3ccc(NC(=O)C4(C(=O)Nc5ccc(F)cc5)CC4)cc3F)ccnc2cc1OCCCN1CCOCC1 [Foretinib] (partner 0.25 µM)
In short: as §1

## NCI-H2023
[1]; first compound 0.0025 µM
  relative viability: 0.23
[1]; first compound 0.007906 µM
  relative viability: 0.255
[1]; first compound 0.025 µM
  relative viability: 0.211
[1]; first compound 0.07906 µM
  relative viability: 0.231
[1]; first compound 0.25 µM
  relative viability: 0.244
IDH-C35 + Decitabine; first compound 0.08 µM
  relative viability: 0.231
IDH-C35 + Decitabine; first compound 0.253 µM
  relative viability: 0.22
IDH-C35 + Decitabine; first compound 0.8 µM
  relative viability: 0.259
IDH-C35 + Decitabine; first compound 2.53 µM
  relative viability: 0.233
IDH-C35 + Decitabine; first compound 8 µM
  relative viability: 0.265
IDH-C35 + Navitoclax; first compound 0.08 µM
  relative viability: 1.09
IDH-C35 + Navitoclax; first compound 0.253 µM
  relative viability: 1.01
IDH-C35 + Navitoclax; first compound 0.8 µM
  relative viability: 0.979
IDH-C35 + Navitoclax; first compound 2.53 µM
  relative viability: 0.962
IDH-C35 + Navitoclax; first compound 8 µM
  relative viability: 1.1
[2]; first compound 0.0025 µM
  relative viability: 0.871
[2]; first compound 0.007906 µM
  relative viability: 0.809
[2]; first compound 0.025 µM
  relative viability: 0.959
[2]; first compound 0.07906 µM
  relative viability: 0.898
[2]; first compound 0.25 µM
  relative viability: 1.03

## NCI-H2085
[1]; first compound 0.0025 µM
  relative viability: 0.526
[1]; first compound 0.007906 µM
  relative viability: 0.543
[1]; first compound 0.025 µM
  relative viability: 0.536
[1]; first compound 0.07906 µM
  relative viability: 0.473
[1]; first compound 0.25 µM
  relative viability: 0.661
IDH-C35 + Decitabine; first compound 0.08 µM
  relative viability: 0.543
IDH-C35 + Decitabine; first compound 0.253 µM
  relative viability: 0.549
IDH-C35 + Decitabine; first compound 0.8 µM
  relative viability: 0.554
IDH-C35 + Decitabine; first compound 2.53 µM
  relative viability: 0.569
IDH-C35 + Decitabine; first compound 8 µM
  relative viability: 0.465
IDH-C35 + Navitoclax; first compound 0.08 µM
  relative viability: 1.21
IDH-C35 + Navitoclax; first compound 0.253 µM
  relative viability: 1.25
IDH-C35 + Navitoclax; first compound 0.8 µM
  relative viability: 1.15
IDH-C35 + Navitoclax; first compound 2.53 µM
  relative viability: 1.14
IDH-C35 + Navitoclax; first compound 8 µM
  relative viability: 1.21
[2]; first compound 0.0025 µM
  relative viability: 0.965
[2]; first compound 0.007906 µM
  relative viability: 0.803
[2]; first compound 0.025 µM
  relative viability: 0.957
[2]; first compound 0.07906 µM
  relative viability: 0.796
[2]; first compound 0.25 µM
  relative viability: 0.827

## NCI-H2087
[1]; first compound 0.0025 µM
  relative viability: 0.315
[1]; first compound 0.007906 µM
  relative viability: 0.28
[1]; first compound 0.025 µM
  relative viability: 0.274
[1]; first compound 0.07906 µM
  relative viability: 0.295
[1]; first compound 0.25 µM
  relative viability: 0.248
IDH-C35 + Decitabine; first compound 0.08 µM
  relative viability: 0.284
IDH-C35 + Decitabine; first compound 0.253 µM
  relative viability: 0.25
IDH-C35 + Decitabine; first compound 0.8 µM
  relative viability: 0.274
IDH-C35 + Decitabine; first compound 2.53 µM
  relative viability: 0.302
IDH-C35 + Decitabine; first compound 8 µM
  relative viability: 0.254
IDH-C35 + Navitoclax; first compound 0.08 µM
  relative viability: 1.13
IDH-C35 + Navitoclax; first compound 0.253 µM
  relative viability: 1.02
IDH-C35 + Navitoclax; first compound 0.8 µM
  relative viability: 0.896
IDH-C35 + Navitoclax; first compound 2.53 µM
  relative viability: 0.867
IDH-C35 + Navitoclax; first compound 8 µM
  relative viability: 0.999
[2]; first compound 0.0025 µM
  relative viability: 1.05
[2]; first compound 0.007906 µM
  relative viability: 1.05
[2]; first compound 0.025 µM
  relative viability: 1.03
[2]; first compound 0.07906 µM
  relative viability: 0.811
[2]; first compound 0.25 µM
  relative viability: 1.07

## NCI-H2126
[1]; first compound 0.0025 µM
  relative viability: 0.575
[1]; first compound 0.007906 µM
  relative viability: 0.561
[1]; first compound 0.025 µM
  relative viability: 0.564
[1]; first compound 0.07906 µM
  relative viability: 0.512
[1]; first compound 0.25 µM
  relative viability: 0.603
IDH-C35 + Decitabine; first compound 0.08 µM
  relative viability: 0.573
IDH-C35 + Decitabine; first compound 0.253 µM
  relative viability: 0.602
IDH-C35 + Decitabine; first compound 0.8 µM
  relative viability: 0.592
IDH-C35 + Decitabine; first compound 2.53 µM
  relative viability: 0.526
IDH-C35 + Decitabine; first compound 8 µM
  relative viability: 0.559
IDH-C35 + Navitoclax; first compound 0.08 µM
  relative viability: 0.906
IDH-C35 + Navitoclax; first compound 0.253 µM
  relative viability: 0.864
IDH-C35 + Navitoclax; first compound 0.8 µM
  relative viability: 0.849
IDH-C35 + Navitoclax; first compound 2.53 µM
  relative viability: 0.866
IDH-C35 + Navitoclax; first compound 8 µM
  relative viability: 0.857
[2]; first compound 0.0025 µM
  relative viability: 1.28
[2]; first compound 0.007906 µM
  relative viability: 0.958
[2]; first compound 0.025 µM
  relative viability: 1.03
[2]; first compound 0.07906 µM
  relative viability: 1.29
[2]; first compound 0.25 µM
  relative viability: 0.947

## NCI-H2170
[1]; first compound 0.0025 µM
  relative viability: 0.495
[1]; first compound 0.007906 µM
  relative viability: 0.514
[1]; first compound 0.025 µM
  relative viability: 0.462
[1]; first compound 0.07906 µM
  relative viability: 0.441
[1]; first compound 0.25 µM
  relative viability: 0.481
IDH-C35 + Decitabine; first compound 0.08 µM
  relative viability: 0.428
IDH-C35 + Decitabine; first compound 0.253 µM
  relative viability: 0.451
IDH-C35 + Decitabine; first compound 0.8 µM
  relative viability: 0.482
IDH-C35 + Decitabine; first compound 2.53 µM
  relative viability: 0.507
IDH-C35 + Decitabine; first compound 8 µM
  relative viability: 0.457
IDH-C35 + Navitoclax; first compound 0.08 µM
  relative viability: 0.626
IDH-C35 + Navitoclax; first compound 0.253 µM
  relative viability: 0.535
IDH-C35 + Navitoclax; first compound 0.8 µM
  relative viability: 0.595
IDH-C35 + Navitoclax; first compound 2.53 µM
  relative viability: 0.479
IDH-C35 + Navitoclax; first compound 8 µM
  relative viability: 0.627
[2]; first compound 0.0025 µM
  relative viability: 0.989
[2]; first compound 0.007906 µM
  relative viability: 1.09
[2]; first compound 0.025 µM
  relative viability: 0.984
[2]; first compound 0.07906 µM
  relative viability: 0.972
[2]; first compound 0.25 µM
  relative viability: 1.08

## NCI-H2347
[1]; first compound 0.0025 µM
  relative viability: 0.638
[1]; first compound 0.007906 µM
  relative viability: 0.649
[1]; first compound 0.025 µM
  relative viability: 0.608
[1]; first compound 0.07906 µM
  relative viability: 0.56
[1]; first compound 0.25 µM
  relative viability: 0.662
IDH-C35 + Decitabine; first compound 0.08 µM
  relative viability: 0.647
IDH-C35 + Decitabine; first compound 0.253 µM
  relative viability: 0.651
IDH-C35 + Decitabine; first compound 0.8 µM
  relative viability: 0.661
IDH-C35 + Decitabine; first compound 2.53 µM
  relative viability: 0.599
IDH-C35 + Decitabine; first compound 8 µM
  relative viability: 0.654
IDH-C35 + Navitoclax; first compound 0.08 µM
  relative viability: 0.766
IDH-C35 + Navitoclax; first compound 0.253 µM
  relative viability: 0.765
IDH-C35 + Navitoclax; first compound 0.8 µM
  relative viability: 0.801
IDH-C35 + Navitoclax; first compound 2.53 µM
  relative viability: 0.851
IDH-C35 + Navitoclax; first compound 8 µM
  relative viability: 0.742
[2]; first compound 0.0025 µM
  relative viability: 1.23
[2]; first compound 0.007906 µM
  relative viability: 1.13
[2]; first compound 0.025 µM
  relative viability: 0.716
[2]; first compound 0.07906 µM
  relative viability: 0.831
[2]; first compound 0.25 µM
  relative viability: 0.881

## NCI-H2405
[1]; first compound 0.0025 µM
  relative viability: 0.686
[1]; first compound 0.007906 µM
  relative viability: 0.746
[1]; first compound 0.025 µM
  relative viability: 0.752
[1]; first compound 0.07906 µM
  relative viability: 0.738
[1]; first compound 0.25 µM
  relative viability: 0.739
IDH-C35 + Decitabine; first compound 0.08 µM
  relative viability: 0.701
IDH-C35 + Decitabine; first compound 0.253 µM
  relative viability: 0.751
IDH-C35 + Decitabine; first compound 0.8 µM
  relative viability: 0.652
IDH-C35 + Decitabine; first compound 2.53 µM
  relative viability: 0.775
IDH-C35 + Decitabine; first compound 8 µM
  relative viability: 0.668
IDH-C35 + Navitoclax; first compound 0.08 µM
  relative viability: 0.926
IDH-C35 + Navitoclax; first compound 0.253 µM
  relative viability: 0.981
IDH-C35 + Navitoclax; first compound 0.8 µM
  relative viability: 0.918
IDH-C35 + Navitoclax; first compound 8 µM
  relative viability: 0.76
[2]; first compound 0.0025 µM
  relative viability: 1.09
[2]; first compound 0.007906 µM
  relative viability: 1.05
[2]; first compound 0.07906 µM
  relative viability: 0.978
[2]; first compound 0.25 µM
  relative viability: 1.01

## NCI-H3122
[1]; first compound 0.0025 µM
  relative viability: 0.393
[1]; first compound 0.007906 µM
  relative viability: 0.454
[1]; first compound 0.025 µM
  relative viability: 0.47
[1]; first compound 0.07906 µM
  relative viability: 0.448
[1]; first compound 0.25 µM
  relative viability: 0.389
IDH-C35 + Decitabine; first compound 0.08 µM
  relative viability: 0.432
IDH-C35 + Decitabine; first compound 0.253 µM
  relative viability: 0.428
IDH-C35 + Decitabine; first compound 0.8 µM
  relative viability: 0.386
IDH-C35 + Decitabine; first compound 2.53 µM
  relative viability: 0.473
IDH-C35 + Decitabine; first compound 8 µM
  relative viability: 0.458
IDH-C35 + Navitoclax; first compound 0.08 µM
  relative viability: 1.03
IDH-C35 + Navitoclax; first compound 0.253 µM
  relative viability: 0.997
IDH-C35 + Navitoclax; first compound 0.8 µM
  relative viability: 0.96
IDH-C35 + Navitoclax; first compound 2.53 µM
  relative viability: 1.01
IDH-C35 + Navitoclax; first compound 8 µM
  relative viability: 1.08
[2]; first compound 0.0025 µM
  relative viability: 0.936
[2]; first compound 0.007906 µM
  relative viability: 0.982
[2]; first compound 0.025 µM
  relative viability: 0.988
[2]; first compound 0.07906 µM
  relative viability: 0.99
[2]; first compound 0.25 µM
  relative viability: 0.983
